Measurements taken from patent US20070281992A1, “COMBINATION OF GYRASE B INHIBITORS AND PROTEIN SYNTHESIS INHIBITORS AND USES THEREOF” (priority 2006, published 2007).
Read-outs that look alike come from different tables or passages of the source.

Tests used:
Assay type in all cases: cell-based
[1] = system: Methicillin-Resistant Staphylococcus aureus Isolates; test: MIC assay (NCCLS broth dilution), MRSA clinical isolates; details: Staphylococcus aureus; for MIC: read-out: Minimal Inhibitory Concentration
Protocol: (§1) Antibiotics: novobiocin, tetracycline, minocycline, oxacillin, and vancomycin were all purchased from Sigma-Aldrich. Linezolid was obtained from Pfizer, Inc. Novobiocin/tetracycline and novobiocin/minocycline were tested in a 2.5:1 ratio to mimic the serum levels. (Vavra, J. J., 1967, Development of resistance to novobiocin, tetracycline, and novobiocin-tetracycline combinations in Staphylococcus aureus populations, J. Bacteriol 93(3):801). Compounds were tested across a concentration range consisting of 11 two-fold serial dilutions of test agent.
(§2) Stock solutions were prepared in sterile deionized water; novobiocin stock concentration was 1600 μg/mL and all other drugs stock solutions were prepared at 640 μg/mL. The stock solutions were allowed to sit at room temperature for one hour to auto-sterilize prior to use in the test. All compounds were in solution in water. The control agent was vancomycin hydrochloride, Sigma Chemical Lot # 015K0825.
(§3) The test organisms for the assay were 52 MSSA, 52 MRSA, 8 VISA, 7 VISE, and 3 LRSA isolates. Quality control strains included Staphylococcus aureus 0100 (ATCC 29213) and Enterococcus faecalis (ATCC 29212).
(§4) The MIC assay was performed according to published NCCLS guidelines. (National Committee for Clinical Laboratory Standards, Methods for Dilution Antimicrobial Susceptibility Tests for Bacteria that Grow Aerobically; Approved Standard-Sixth Edition, NCCLS Document M7-A6 [ISBN 1-56238-486-4], NCCLS, 940 West Valley Road, Suite 1400, Wayne, Pa. 19087-1898 USA, 2003). The test medium was Mueller Hinton II Broth for all organisms.

[2] = system: Vancomycin-intermediate Staphylococcus aureus Isolates; test: MIC assay (NCCLS broth dilution), VISA isolates; details: for MIC: read-out: Minimal Inhibitory Concentration
Protocol: as §1, §2, §3, §4

[3] = system: Linezolid-Resistant Staphylococcus aureus Isolates; test: MIC assay (NCCLS broth dilution), LRSA isolates; details: for MIC: read-out: Minimal Inhibitory Concentration
Protocol: as §1, §2, §3, §4

[4] = system: Enterococcus faecalis (ATCC 29212); test: MIC assay, quality control strain E. faecalis ATCC 29212; details: ATCC29212, E. faecalis ATCC 29212, repeat runs 22FEB06-09MAR06, combinations at 2.5:1, read-out: Minimal Inhibitory Concentration, quality control
Protocol: as §1, §2, §3, §4

[5] = 52 MRSA isolates, combinations at 2.5:1, given as NB/partner

MIC ([1]; MRSA isolate 758, 24FEB06): 0.15 µg/mL
MIC ([1]; MRSA isolate 760, 03MAR06): 0.08 µg/mL
MIC ([1]; MRSA isolate 760, 24FEB06): 0.15 µg/mL
MIC ([1]; MRSA isolate 763, 22FEB06): 0.08 µg/mL
MIC ([1]; MRSA isolate 765, 22FEB06): 0.15 µg/mL
MIC ([1]; MRSA isolate 766, 22FEB06): 0.08 µg/mL
MIC ([1]; MRSA isolate 767, 22FEB06): 0.15 µg/mL
MIC ([1]; MRSA isolate 768, 22FEB06): 0.15 µg/mL
MIC ([1]; MRSA isolate 769, 22FEB06): 0.15 µg/mL
MIC ([1]; MRSA isolate 770, 22FEB06): ≤ 0.04 µg/mL
MIC ([1]; MRSA isolate 771, 22FEB06): 0.08 µg/mL
MIC ([1]; MRSA isolate 772, 22FEB06): 0.15 µg/mL
MIC ([1]; MRSA isolate 773, 24FEB06): 0.31 µg/mL
MIC ([1]; MRSA isolate 774, 24FEB06): 0.31 µg/mL
MIC ([1]; MRSA isolate 775, 24FEB06): 0.15 µg/mL
MIC ([1]; MRSA isolate 776, 24FEB06): 0.15 µg/mL
MIC ([1]; MRSA isolate 777, 24FEB06): ≤ 0.04 µg/mL
MIC ([1]; MRSA isolate 778, 24FEB06): ≤ 0.04 µg/mL
MIC ([1]; MRSA isolate 886, 24FEB06): 0.15 µg/mL
MIC ([1]; MRSA isolate 887, 24FEB06): 0.08 µg/mL
MIC ([1]; MRSA isolate 888, 24FEB06): 0.15 µg/mL
MIC ([1]; MRSA isolate 889, 24FEB06): 0.15 µg/mL
MIC ([1]; MRSA isolate 1004, 24FEB06): 0.31 µg/mL
MIC ([1]; MRSA isolate 1010, 22FEB06): 0.31 µg/mL
MIC ([1]; MRSA isolate 1012, 22FEB06): 0.31 µg/mL
MIC ([1]; MRSA isolate 1013, 22FEB06): 0.31 µg/mL
MIC ([1]; MRSA isolate 1014, 22FEB06): 0.15 µg/mL
MIC ([1]; MRSA isolate 1015, 22FEB06): 0.08 µg/mL
MIC ([1]; MRSA isolate 1016, 22FEB06): 0.31 µg/mL
MIC ([1]; MRSA isolate 1017, 22FEB06): 0.08 µg/mL
MIC ([1]; MRSA isolate 1021, 22FEB06): 0.15 µg/mL
MIC ([1]; MRSA isolate 1022, 22FEB06): 0.31 µg/mL
MIC ([1]; MRSA isolate 1023, 22FEB06): 0.15 µg/mL
MIC ([1]; MRSA isolate 1024, 22FEB06): 0.15 µg/mL
MIC ([1]; MRSA isolate 1025, 22FEB06): 0.15 µg/mL
MIC ([1]; MRSA isolate 1135, 22FEB06): 0.31 µg/mL
MIC ([1]; MRSA isolate 1136, 22FEB06): 0.31 µg/mL
MIC ([1]; MRSA isolate 1137, 22FEB06): 0.62 µg/mL
MIC ([1]; MRSA isolate 1138, 22FEB06): 0.15 µg/mL
MIC ([1]; MRSA isolate 1222, 03MAR06): 0.08 µg/mL
MIC ([1]; MRSA isolate 1222, 24FEB06): 0.08 µg/mL
MIC ([1]; MRSA isolate 1653, 03MAR06): ≤ 0.04 µg/mL
MIC ([1]; MRSA isolate 1658, 03MAR06): 0.08 µg/mL
MIC ([1]; MRSA isolate 1659, 03MAR06): 0.08 µg/mL
MIC ([1]; MRSA isolate 1661, 03MAR06): ≤ 0.04 µg/mL
MIC ([1]; MRSA isolate 1729, 03MAR06): 0.08 µg/mL
MIC ([1]; MRSA isolate 1730, 24FEB06): 0.15 µg/mL
MIC ([1]; MRSA isolate 2009, 24FEB06): ≤ 0.04 µg/mL
MIC ([1]; MRSA isolate 2010, 24FEB06): 0.15 µg/mL
MIC ([1]; MRSA isolate 2011, 24FEB06): 0.15 µg/mL
MIC50 [1, 5]: 0.15 µg/mL
MIC90 [1, 5]: 0.312 µg/mL
MIC Range ([2]; 2 VISA isolates, combinations at 2.5:1, given as NB/partner): ≦.04-.08 μg/ml
MIC ([2]; Staphylococcus aureus, VISA isolate 2012, 03MAR06): 0.08 µg/mL
MIC ([2]; Staphylococcus aureus, VISA isolate 2018, 03MAR06): ≤ 0.04 µg/mL
MIC50 ([2]; Staphylococcus aureus, 2 VISA isolates, combinations at 2.5:1, given as NB/partner): ≤ 0.04 µg/mL
MIC Range ([3]; 3 LRSA isolates, combinations at 2.5:1): 0.15 µg/mL
MIC ([3]; Staphylococcus aureus, LRSA isolate 1651, 24FEB06): 0.15 µg/mL
MIC ([3]; Staphylococcus aureus, LRSA isolate 1652, 24FEB06): 0.15 µg/mL
MIC ([3]; Staphylococcus aureus, LRSA isolate 1725, 24FEB06): 0.15 µg/mL
MIC50 ([3]; Staphylococcus aureus, 3 LRSA isolates, combinations at 2.5:1): 0.15 µg/mL
MIC [4]: 5 µg/mL
SMILES: CO[C@@H]1[C@@H](OC(N)=O)[C@@H](O)[C@H](Oc2ccc3c(O)c(NC(=O)c4ccc(O)c(CC=C(C)C)c4)c(=O)oc3c2C)OC1(C)C [NB, novobiocin]
